Assay results: patent US20110319338A1, “PEPTIDES THAT BIND EUKARYOTIC TRANSLATION INITIATION FACTOR 4E” (The Board of Regents of the University of Texas System, priority 2008, published 2011)
“Also recorded” adds a separate entry of the source. Square brackets hold non-standard residues; d marks the D form. Peptide text beside a SMILES is read from it. pGlu = O=C1CC[C@@H](C(=O)O)N1

Experiments:
[1] = Mouse serum antibody assays; type: in vivo, mice; conditions: serum 1:100 dilution
Experimental: FIGS. 12A-12C. Serum luteinizing hormone (LH) levels and serum antibody reactivity.
Mouse serum antibody assays. Wells in 96-well plates were coated with 50 nanograms of [DLys6]GnRH-4EBP1-WT peptide or with 100 nanograms of ES-2 cell lysate. Serum of saline- and peptide-treated mice (1:100 dilution) was incubated in wells for 2 hours at room temperature. Bound IgG was detected using horseradish peroxidase-conjugated goat anti-mouse IgG, and measured at an optimal density of 450 nm.

[2] = Peptide stability in serum and in culture medium (Western blot, MALDI TOF); type: in vitro ADME; conditions: human, serum (undiluted, of an ovarian cancer patient), 37° C.
Experimental: FIGS. 6A-6B. Stability of [DLys6]GnRH-4EBP1 peptide. Biotinylated peptide was added to McCoys' 5A medium containing 10% fetal bovine serum (FBS), and to human serum. Samples were immediately withdrawn (0 hours). The remaining mixtures were incubated at 37° C., and samples taken thereafter at 1, 3, 6, 12 and 24 hours. In (FIG. 6A), samples were analyzed by Western blot using horseradish peroxidase-conjugated strepatavidin. In (FIG. 6B), samples of peptide incubated in serum for 0, 12 and 24 hours were analyzed by Matrix Assisted Laser Desorption Ionization-Time of Flight (MALDI TOF) mass spectrometry. Peaks corresponding to intact peptide (mass: 3990) are indicated. Peaks of 1256, 1684 and 3384 in mass are likely to represent degradation products of the peptide.
Peptide stability studies. Biotinylated peptide (7 micrograms) was mixed with McCoys' 5A medium containing 10% FBS in a final volume of 140 microliters. A sample of 20 microliters was immediately removed and frozen. The remaining mixture was incubated at 37° C., and 20 microliters samples taken thereafter at 1, 3, 6, 12 and 24 hours. […] Samples were analyzed by Western blot using horseradish peroxidase-conjugated strepatavidin, and by MALDI TOF mass spectrometry using an Applied Biosystems 4700 Proteomic Analyzer.

ES-2-GFP cells = test: Mouse i.p. xenograft model of epithelial ovarian cancer; type: in vivo; conditions: for Deaths (died before completing treatment regimen) / Drop-outs (euthanized prior to completion due to morbidity related to ascites accumulation): of 11 mice per group
Experimental: FIGS. 4A-4C. Anti-tumor activity of [DLys6]GnRH-4EBP1-WT peptide in a xenograft model of EOC. Female nude mice were inoculated i.p. with one million ES-2-GFP cells. At Day 9 after tumor cell inoculation, one group of mice (n=5) was sacrificed (pre-treatment). At Day 9, other groups of mice were administered by i.p. injection with saline (n=11), [DLys6]GnRH (n=11) or [DLys6]GnRH-4EBP1-WT (n=11) at a dose of 3.0 nanomoles per gram body weight Saline or peptide was administered every 2 days thereafter for 11 days (6 doses in total), and mice were sacrificed on Day 20. (FIG. 4A) Visualization under a fluorescence stereoscope of i.p. tumors in pre-treatment mice (at Day 9) including implants on the omentum (ome), and in mice treated with saline, with agonist alone and with [DLys6]GnRH-4EBP1-WT (at Day 20). (FIG. 4B) Hematoxylin eosin-stained sections of tissues of pre-treatment mice (at Day 9) and of saline- and peptide-treated mice (at Day 20). Tumors attached to the omentum extensively involved the pancreas in saline- and agonist-treated mice. Also shown are tumors attached to the broad ligament and mesentery. Bar, 200 micrometers. (FIG. 4C) Quantification of i.p. tumor burden in pre-treatment and treated mice that completed the regimen, expressed as the average percent of area of fluorescence within the abdominal cavity in captured images, and volume of ascites. Median values of tumor burden and ascites volume for each group and statistical significance of differences between groups are indicated.
(§1) Animal Studies. Animal studies were approved by the Institutional Animal Care and Use Committee. The ES-2 cell line stably expressing enhanced green fluorescent protein (ES-2-GFP) has been described in previous work (Hara et al., 2007). Four-week-old female nude mice were inoculated i.p. at one site in the lower abdomen with 10^6 ES-2-GFP cells. At Day 9 after tumor cell inoculation, one group of mice (n=5) were killed by CO2 asphyxiation. At Day 9, other groups of mice were administered by i.p. injection with 200 microliters of phosphate-buffered saline (PBS) (n=11), [DLys6]GnRH (n=11) or [DLys6]GnRH-4EBP1-WT peptide (n=11) at a dose of 3.0 nanomoles per gram body weight. Peptides were suspended in PBS and administered at a volume of 200 microliters. PBS or peptide was administered every 2 days thereafter for 11 days (6 doses in total). Mice were sacrificed on Day 20, and ascites harvested. Tumors were visualized under a Leica MZML III fluorescence stereomicroscope equipped with mercury lamp power supply and green fluorescent protein (GFP) filter set. Tumor burden was quantified by measuring areas of fluorescence signals within the abdominal cavity in captured images by using Image Pro Plus 5.0 software (Media Cybernetics, Bethesda, Md.). Slides of paraffin-embedded tissues collected from mice were stained with hematoxylin-eosin. TUNEL-staining of tissue sections was performed using the in situ cell death detection kit (Roche).
To determine the efficacy of [DLys6]GnRH-4EBP1-WT peptide in vivo, a mouse i.p. xenograft model was used that was established from an ES-2 cell line stably expressing GFP (Hara et al., 2007). This model mimics the typical behavior of epithelial ovarian cancer, including i.p. dissemination and ascites formation. This example comprised three treatment groups of mice i) saline, ii) [DLys6]GnRH agonist, and iii) [DLys6]GnRH-4EBP1-WT, where sample size of each group was n=11. The first dose of peptide or saline was administered i.p. to mice at Day 9 after tumor cell inoculation. At Day 9, no ascites had yet formed but tumors had established on the omentum, broad ligament and mesentery which are common sites of ovarian cancer cell attachment (FIGS. 4A,B). A schedule in which peptide was administered every 2 days was chosen, based on the studies of peptide stability in serum (FIG. 6).
Based on studies of other agonist conjugates in xenograft models (19-21), a peptide dose of 3.0 nanomoles per gram body weight was used. […]

[3] = Tolerability in xenograft mice: observation, histology and TUNEL-staining of tissues; type: in vivo
Source text: FIGS. 11A-11B. TUNEL-staining of tissues of saline- and peptide-treated mice. […] Shown are normal tissues of the brain, heart, lung, liver, breast, pancreas and ovary, and tumor implants on the omentum. Bar, 60 micrometers. Pancreatic and ovarian sections show normal pancreatic (P) and ovarian (O) tissues plus adjacent tumor (T). Also shown are normal tissues of the pituitary and bone marrow. Bar, 20 micrometers
as §1

luteinizing hormone (LH) = test: Assay of serum LH levels by radioimmunoassay; conditions: serum collected at end of regimen (Day 20)

CC[C@H](C)[C@H](NC(=O)[C@H](CCCNC(=N)N)NC(=O)[C@@H](NC(=O)CNC(=O)CNC(=O)[C@@H]1CCCN1C(=O)[C@H](CCCNC(=N)N)NC(=O)[C@H](CC(C)C)NC(=O)[C@@H](CCCCN)NC(=O)[C@H](Cc1ccc(O)cc1)NC(=O)[C@H](CO)NC(=O)[C@H](Cc1c[nH]c2ccccc12)NC(=O)[C@H](Cc1c[nH]cn1)NC(=O)[C@@H]1CCC(=O)N1)[C@@H](C)O)C(=O)N[C@H](C(=O)N[C@@H](Cc1ccc(O)cc1)C(=O)N[C@@H](CC(=O)O)C(=O)N[C@@H](CCCNC(=N)N)C(=O)N[C@@H](CCCCN)C(=O)N[C@@H](Cc1ccccc1)C(=O)N[C@@H](CC(C)C)C(=O)N[C@@H](CCSC)C(=O)N[C@@H](CCC(=O)O)C(=O)N[C@@H](CS)C(=O)N[C@@H](CCCNC(=N)N)C(=O)N[C@@H](CC(N)=O)C(=O)N[C@@H](CO)C(=O)N1CCC[C@H]1C(=O)N[C@H](C(=O)N[C@H](C(=O)O)[C@@H](C)O)C(C)C)[C@@H](C)CC [[DLys6]GnRH-4EBP1-WT] ([pGlu]HWSY[dK]LRPGGTRIIYDRKFLMECRNSPVT-OH)
mice with antibody reactivity to [DLys6]GnRH-4EBP1-WT at least two standard deviations above mean background in saline-treated mice [1]: 2 of 8
half-life [2]: 300 to 360 min
Mice euthanized, day (ES-2-GFP cells; drop-out mice, individual animals): n = 1, day 15; also recorded: n = 1, day 17
day of death before completing treatment regimen (ES-2-GFP cells; mouse, in vivo): 19 days
Deaths (died before completing treatment regimen) (ES-2-GFP cells): 1
Drop-outs (euthanized prior to completion due to morbidity related to ascites accumulation) (ES-2-GFP cells): 2
Deaths (died before completing treatment regimen) (ES-2-GFP cells; listed as [DLys6]GnRH-4EBP-WT): one
Drop-outs (euthanized prior to completion due to morbidity related to ascites accumulation) (ES-2-GFP cells; listed as [DLys6]GnRH-4EBP-WT): two
TUNEL-positive cells in other normal tissues (brain, heart, lung and bone marrow) ([3]; Day 20): not detected
TUNEL-staining in ovaries ([3]; Day 20): some staining was observed
TUNEL-staining of cells of the liver and pancreas ([3]; Day 20): TUNEL-negative
TUNEL-staining in breast and pituitary tissues ([3]; Day 20, tissues that express GnRH-RI): No TUNEL-staining was detected
serum LH levels compared with saline-treated mice (luteinizing hormone (LH)): not significantly different
